In patent US11872296B2, “Preservation compositions” (Conopco, Inc., priority 2018, dated 2024):

Legend:
[1] = system: Gram negative fermenting bacteria: Enterobacter gergoviae & Klebsiella species; test: Liquid broth checkerboard assay (MIC, ΣFIC synergy), Pool 2; type: cell-based; conditions: tryptic soy broth, 30° C., 24 hours, ΣFIC<1 synergistic
Source text: (§1) The differing behaviours of inhibitory antimicrobials in isolation and mixtures have been widely explored using the concept of the Fractional Concentration and Fractional Inhibitory Concentration (FIC). See for instance JRW Lambert and R Lambert, J. Appl. Microbiol 95, 734 (2003); T. Jadavji, CG Prober and R Cheung, Antimicrobial Agents and Chemotherapy 26, 91 (1984), and WO 2004/006876. These parameters can be defined as follows:
(§2) FC (component a)=Concentration of component a tested in the mixture/MIC (component a tested as a single active)
(§3) FIC (component a)=MIC (component a tested in the mixture)/MIC (component a tested as a single active)
(§4) The interactions between antimicrobials can be additive, synergistic or possibly antagonistic depending on whether the efficacy of the combination is equivalent to, greater than or less than that obtained for the same total concentration of the individual components when tested alone.
(§5) These relationships can be expressed mathematically by summing the fractional MIC values for all the components present in the mixture to give the “fractional inhibitory index”: ΣFIC=FIC(component 1)+FIC(component 2) Such that: ΣFIC≥1 corresponds to additive or antagonistic activity ΣFIC<1 corresponds to synergistic activity
(§6) Liquid broth assays (MIC and checkerboard) were conducted to identify the minimum concentration(s) of individual and binary combinations of preservation chemicals. A modified methodology to ISO 20776-1:2006 was utilised for the screening as follows. Stock solutions of preservation chemicals and tryptic soy broth were inoculated with 1-5×10^6 microorganisms and incubated at 30° C. for 24 hours, after which optical densities at OD600nm were measured. […] Preservation chemicals were screened at a concentration range of 0.0156-2%.

[2] = system: Gram negative non-fermenting bacteria: Pseudomonas aeruginosa, Pseudomonas putida & Burkholderia cepacia; test: Liquid broth checkerboard assay (MIC, ΣFIC synergy), Pool 1; type: cell-based; conditions: tryptic soy broth, 30° C., 24 hours, ΣFIC<1 synergistic
Source text: as §1, §2, §3, §4, §5, §6

[3] = binary combination with Citric Acid
[4] = binary combination with Itaconic acid

| SMILES | ΣFIC synergy score [1, 3] | ΣFIC synergy score [1, 4] | ΣFIC synergy score [2, 3] | ΣFIC synergy score [2, 4] |
| --- | --- | --- | --- | --- |
| CCCCc1ccc(O)cc1 [4-n-butyl phenol] | 0.59 | 0.50 | 0.50 | 0.44 |
| C=CCc1ccc(O)c(OC)c1 [Eugenol] | 0.53 | 0.38 | 0.75 | 0.38 |
| CCOc1cc(C=O)ccc1O [Ethylvanillin] | 0.69 | 0.63 | 0.63 | 0.56 |
